Data published in patent US10435399B2, “HDAC6 inhibitory heterocyclic compound” (TAKEDA PHARMACEUTICAL COMPANY LIMITED, priority 2017, dated 2019).
One block for each compound: values may come before it.

Experiments:
HDAC6 enzyme = molecular target: T1, HDAC6 enzyme (Homo sapiens, UniProt Q9UBN7); test: HDAC6 enzyme inhibitory activity (HDAC-Glo I/II Assay kit); format: biochemical; settings: 10 μM; wells without enzyme = 100% inhibition; read-out: HDAC6 inhibitory rate (%) (10 μM)
T1 construct: transducing full length HDAC6 gene into Sf-9 insect cells; GST; purchased SignalChem; host or cells: Sf-9 insect cells
T1 sequence (Q9UBN7 1-1215): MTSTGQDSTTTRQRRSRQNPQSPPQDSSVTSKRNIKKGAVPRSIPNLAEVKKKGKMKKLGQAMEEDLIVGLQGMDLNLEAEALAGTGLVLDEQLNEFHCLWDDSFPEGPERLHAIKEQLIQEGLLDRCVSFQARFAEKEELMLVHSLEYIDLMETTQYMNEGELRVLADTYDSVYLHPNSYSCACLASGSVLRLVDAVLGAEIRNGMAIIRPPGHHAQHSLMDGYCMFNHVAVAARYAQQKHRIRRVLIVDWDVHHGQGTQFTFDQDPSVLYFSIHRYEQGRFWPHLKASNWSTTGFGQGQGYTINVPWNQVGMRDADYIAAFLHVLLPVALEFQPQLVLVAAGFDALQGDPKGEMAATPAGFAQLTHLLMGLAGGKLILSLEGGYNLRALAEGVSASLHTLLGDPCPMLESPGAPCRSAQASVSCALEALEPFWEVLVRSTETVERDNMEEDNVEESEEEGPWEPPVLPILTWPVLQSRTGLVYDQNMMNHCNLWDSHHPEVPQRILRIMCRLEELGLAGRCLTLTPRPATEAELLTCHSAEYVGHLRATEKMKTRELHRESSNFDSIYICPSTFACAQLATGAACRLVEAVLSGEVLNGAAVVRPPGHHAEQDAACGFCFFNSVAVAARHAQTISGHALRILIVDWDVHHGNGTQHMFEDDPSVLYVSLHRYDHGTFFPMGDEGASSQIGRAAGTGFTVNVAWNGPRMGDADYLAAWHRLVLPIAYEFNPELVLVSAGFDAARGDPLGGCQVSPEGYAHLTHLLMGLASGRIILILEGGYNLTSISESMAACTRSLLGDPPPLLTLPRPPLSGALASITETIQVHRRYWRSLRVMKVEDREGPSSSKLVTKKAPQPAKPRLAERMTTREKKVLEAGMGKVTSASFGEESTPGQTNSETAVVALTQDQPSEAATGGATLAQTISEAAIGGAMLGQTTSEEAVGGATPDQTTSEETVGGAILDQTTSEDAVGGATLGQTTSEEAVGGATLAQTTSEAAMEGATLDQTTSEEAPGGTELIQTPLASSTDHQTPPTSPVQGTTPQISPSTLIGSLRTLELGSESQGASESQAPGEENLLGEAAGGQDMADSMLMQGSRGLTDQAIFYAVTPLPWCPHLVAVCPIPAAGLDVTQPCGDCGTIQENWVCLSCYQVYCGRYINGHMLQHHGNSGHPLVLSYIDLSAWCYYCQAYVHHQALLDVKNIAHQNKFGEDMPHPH
Outline: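 Test compound is preincubated 60 min at RT with full-length insect-cell HDAC6 in Tris-HCl pH 7.5 with 135 mM NaCl and 1 mM MgCl2. A 20 min room-temperature HDAC-Glo reaction follows, with luminescent read-out.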

TK6 cells = test: γH2AX assay using TK6 cells; format: cell-based, Human; settings: 4 hr treatment, up to 100 μM
Method: γH2AX Assay Using TK6 Cells
Human lymphoblasts-derived TK6 cells were treated with the compounds of Examples 489, 512 or 519 at 0, 10, 30 or 100 μmol/L (final concentration) for 4 hr, and the presence or absence of DNA damage was evaluated by measuring phosphorylation of histone H2AX (γH2AX) as a marker. In addition, cytotoxicity after 24-hr treatment was also evaluated.
Exponentially growing TK6 cells were prepared at the cell density of 4×10^5 cells/mL in a culture medium, and was added to a 96-well plate by 100 μL/well. A test compound solution (2% DMSO) prepared using a culture solution, having twice the concentration on the above-mentioned final concentrations, was added thereto by 100 μL/well. This plate was incubated at 37° C., the cell suspension after 4 hr was sampled, and stained using In Vitro MultiFlow™ DNA Damage Kit (Litron), and H2AX phosphorylation level in each nucleus was measured using a flow cytometer and average value was calculated. The H2AX phosphorylation level in the concurrent vehicle control group was also measured and average value was calculated. The rate of change in the H2AX phosphorylation level in the treatment groups relative to that in the control group was calculated, and Dunnett test (significance level: two-tailed 1%) was performed. In addition, the cell suspension after 24 hr treatment was sampled, and the nucleus number was measured, and variation in the nucleus number in the treatment groups relative to that in the concurrent vehicle control group was used as an indicator of cytotoxicity. […] Therefore, the potential of the compounds for DNA strand breakage was judged to be negative under this test condition.

[1] = test system: acetylated tubulin in brain (hippocampus); test: Increase in acetylated tubulin in brain (hippocampus ELISA); format: in vivo, C57BL/6J mouse; settings: mouse hippocampus, oral 3 mg/kg, 1 h after administration, vs vehicle
Method: Increase in Acetylated Tubulin in Brain
A drug was suspended in 0.5% methyl cellulose to prepare a suspension for administration, having a concentration shown in Table 3. The suspension was orally administered into 8 to […] male C57BL/6J mouse, and after the passage of the time shown in Table 3, the brain was taken out, and hippocampus was obtained. The hippocampus was homogenized under RIPA extract (Wako) to which protease inhibitor (Thermo) and phosphatase inhibitor (Thermo) were added, and centrifuged in 15,000 g for 15 min to prepare a protein extract. The acetylated tubulin and total tubulin in the extract were detected by the following ELISA method. Tubulin antibody (Sigma) was immobilized on 96-well plate (Microlite2+, Thermo), and the plate was stored at 4° C. […] The plate was washed, HRP substrate was added thereto, and the luminescence was measured using a plate reader. The acetylated tubulin and total tubulin were quantified from logistics curve based on dilution series using the mouse hippocampus tissue extract, and the acetylated tubulin relative to total tubulin was calculated, and evaluated as an relative tubulin acetylation level. […] After F test for vehicle group and drug group, the significant difference between the two groups was analyzed by Student t-test or Welch test (indicated as * p<0.05, ** p<0.01). […]

tauopathy mouse model = settings: cited from earlier work
bone-marrow cells = test: Micronucleus test in rats (bone-marrow cells); format: in vivo, rats (Crl:CD(SD)); settings: rat, in vivo, po
Method: Combination Assay of Micronucleus Test and Comet Assay in Rats […] Bone-marrow smear for micronucleus analysis was prepared as follows. Femur was cut at both ends, and washed with fetal bovine serum (FBS) in a centrifuging tube, and the obtained bone-marrow fluid was centrifuged for 5 min at room temperature. The supernatant was removed, and the cell sediment was suspended in the remaining small amount of the supernatant. A part of the suspension was dropped on a glass slide, and a cover glass was placed thereon to give a bone-marrow smear. The smear was dried well, and fixed with methanol for 5 min. The bone-marrow smear of negative control, that of treatment groups as well as the previously prepared bone-marrow smear of positive control group were encoded, and observed by the blind method. An acridine orange solution (40 μg/mL) was dropped (several drops) to the smear just before observation, and a cover glass was placed thereon. […] In addition, as an index of growth inhibitory effect on bone-marrow cell, total of 500 erythrocytes [immature erythrocytes+mature erythrocytes (ME)] per individual were observed, and immature erythrocyte rate (IE %) relative to the total number of erythrocytes was calculated.

[2] = test system: liver and glandular stomach cells; test: Comet assay in rats (liver and glandular stomach); format: in vivo, rats (Crl:CD(SD)); settings: 3 days, test article = compound of Example 489
Method: Combination Assay of Micronucleus Test and Comet Assay in Rats
The compound of Example 489 at doses of 1000 and 2000 mg/kg was orally administered to 8 to 9-week-old rats (Crl:CD(SD), five/group) once daily for 3 days, and micronucleus induction was evaluated in bone-marrow cells, and DNA damage was evaluated by DNA fragmentation of cell nucleus in the liver and glandular stomach.
Sample for comet assay was obtained from liver and glandular stomach by the following procedures. A part of left lateral lobe of liver was washed well with a cooled mincing buffer solution (Hanks' balanced salt solution containing 20 mmol/L EDTA and 10 vol % DMSO, pH7.5), and minced finely with dissecting scissors. This sample was kept on ice for 15 to 30 seconds, the precipitated large cell mass was removed, and the obtained cell suspension was kept on ice. Glandular stomach was added to a cooled mincing buffer solution, and kept on ice for 15 to 30 min. Then, the surface epithelium was removed by scraping gently twice, the stomach mucosa was washed well with a cooled mincing buffer solution, and the mucosa surface was taken out by scraping carefully four times or five times. This was kept on ice for 15 to 30 seconds, the precipitated large cell mass was removed, and the obtained cell suspension was kept on ice.
The liver and glandular stomach cell suspensions prepared by the above-mentioned procedures were added to 0.5 w/v % low-melting agarose so that the concentration became 10 vol % or less, 40 μL of the suspension was dropped to MAS-coated slide (Matsunami Glass Ind., Ltd.), and fixed to give a slide sample. The slide sample was immersed in a cooled cell lysate [an aqueous solution containing 2.5 mol/L sodium chloride, 100 mmol/L EDTA, 10 mmol/L tris(hydroxymethyl)aminomethane, 10 vol % DMSO and 1 vol % Triton X-100, pH 10.0], and kept overnight under light shielding in a refrigerator (2 to 8° C.).
The slide sample was washed with ultrapure water, set at random into an electrophoresis apparatus filled with an alkali buffer solution (an aqueous solution containing 0.3 mol/L sodium hydroxide and 1 mmol/L EDTA, pH >13) for electrophoresis. After confirming that the sample was completely immersed, the sample was left for 20 min to unwind the strands. Next, electrophorese was performed at a constant voltage of 0.7 to 1 V/cm (current is set about 0.30 A) for 20 min (the electrophoresis apparatus was kept on ice so that the alkali buffer solution for electrophoresis was kept at a constant temperature of 10° C. or below, during from the dissociation of the strands to electrophoresis). After electrophoresis, the slide sample was immersed in a neutralizing solution [0.4 mol/L aqueous tris(hydroxymethyl)aminomethane solution, pH 7.5] for 5 min or longer. Then, the slide sample was immersed in ethanol for 5 min or longer, and air-dried. […] The slide samples for negative control, test compound and positive control groups were encoded, and analyzed by the blind method. In each individual animal, 150 of suitable cells were selected for observation using a biological microscope with fluorescence attachment at 200-fold final magnification, and analyzed by image analysis software (Comet Assay IV, Perceptive Instruments Ltd.). The degree of the DNA damage was evaluated by % tail intensity calculated automatically from image analysis software. The median of the % tail intensity was calculated in each slide sample, and the average of the median was calculated in each individual. […]

inhibition at 10 µM (HDAC6 enzyme): 99% | potential for DNA strand breakage (judgement) (TK6 cells): negative
Compound: CC(F)(F)C(=O)N[C@H]1[C@H](N2Cc3ccc(-c4nnc(C(F)F)o4)cc3C2=O)CCCC1(F)F [Example 512, N-((1S,6R)-6-(6-(5-(difluoromethyl)-1,3,4-oxadiazol-2-yl)-1-oxo-1,3-dihydro-2H-isoindol-2-yl)-2,2-difluorocyclohexyl)-2,2-difluoropropanamide]
histone H2AX phosphorylation (γH2AX) resulted from DNA strand breakage (TK6 cells): did not induce histone H2AX phosphorylation | relative tubulin acetylation level (acetylated tubulin relative to total tubulin) [1]: increase in significant tubulin acetylation level was observed

Compound: CN1CCc2c(c3ccccc3n2Cc2ccc(C(=O)NO)cc2)C1 [Tubastatin A]
acetylation of tubulin (tauopathy mouse model): increases acetylation of tubulin | therapeutic effectiveness (tauopathy mouse model): shows therapeutic effectiveness

Compound: CC[C@@]1(O)C(=O)OCc2c1cc1n(c2=O)Cc2cc3cc4c(cc3nc2-1)OCO4 [test article]
micronucleated immature erythrocytes incidences (MNIE %), mean ± SD (bone-marrow cells; 1000 mg/kg/day): 0.10 ± 0.04% | micronucleated immature erythrocytes incidences (MNIE %), mean ± SD (bone-marrow cells; 2000 mg/kg/day): 0.10 ± 0.03% | % tail DNA, mean ± SD ([2]; rat liver, 1000 mg/kg/day oral): 0.08 ± 0.03% | % tail DNA, mean ± SD ([2]; rat liver, 2000 mg/kg/day oral): 0.11 ± 0.04% | % tail DNA, mean ± SD ([2]; rat stomach, 1000 mg/kg/day oral): 0.59 ± 0.22% | % tail DNA, mean ± SD ([2]; rat stomach, 2000 mg/kg/day oral): 0.48 ± 0.21%
